System: KRAS-mutant PDC tumor spheroid with HUVEC/MSC, viability
Assay: Anticancer human tumor 327498-153-R-J2-PDC patient-derived uterine carcinosarcoma cell line growth inhibition [KRAS2]
Conditions: for IC50: curve of first compound; for viability, T/C: stronger effect = lower value
From the text: Multicellular complex tumor spheroid response to RAS pathway inhibitors in combination with a targeted agents in patient-derived cell lines with oncogenic KRAS variants from multiple cancer types
A high-throughput screen of multi-cell type tumor spheroids was designed to identify active combinations of targeted small molecules and KRAS pathway inhibitors. Complex spheroids include a stromal component modeled by human endothelial cells (HUVEC) and fibroblasts modeled by human mesenchymal stem cells (MSCs). The concentration ranges selected for each drug and investigational agent were based upon clinically achievable concentrations if the clinical Cmax of the agent was known.
Compounds. The drugs and investigational agents: BI-3406 (NSC825286), BAY-293 (NSC824723), batoprotafib (TNO155; NSC825523), sotorasib (AMG 510; NSC818433), MRTX1257 (NSC819558), elimusertib (BAY 1895344; NSC800525), molibresib (GSK525762; NSC774829), temuterkib (LY3214996; NSC803410), venetoclax (NSC766270), alisertib (NSC759677), olaparib (NSC753686), talazoparib (NSC767125), erdafitinib (NSC781556), ipatasertib (NSC767898), cabozantinib (NSC761068), nintedanib (NSC756659), abemaciclib (NSC768073), docetaxel (NSC628503), trametinib (NSC758246), and sapanisertib (NSC764658) were obtained from the National Cancer Institute (NCI) Developmental Therapeutics Program Chemical Repository. The FDA-approved anticancer drug set is available from the Developmental Therapeutics Program. […] The stock solutions were prepared in dimethyl sulfoxide (DMSO, Sigma-Aldrich, St. Louis, MO, cat. D2650) at 800-fold the tested concentration and stored at -70 degrees C prior to their use. All drugs and investigational agents were tested over a range starting from a high concentration at or near the clinical Cmax and decreasing in half-log increments. If the clinical Cmax for an agent had not been determined, the highest concentration tested was 10 microM.
Cell Culture. All cells were maintained in an incubator at 37 degrees C and 5% CO2 with 95% humidity. The PDC lines were cultured according to standard operating procedures established by the NCI PDMR (https://pdmr.cancer.gov/sops/default.htm). Briefly, all PDCs were thawed and cultured in Matrigel-coated flasks prepared with a working solution of 1X Ham's F-12 nutrient mix, without supplementation (Invitrogen, Waltham, MA, cat. 11765054), 100 U/mL penicillin-streptomycin (Invitrogen, cat. 15140122), and 2.5% Matrigel (Corning Inc., Corning, NY, cat. 354248) for the first three passages. All PDCs were cultured in complete DMEM/F-12 media containing advanced DMEM/F-12 (Invitrogen, cat. 12634028), 4.9% defined fetal bovine serum, heat inactivated (HyClone Laboratories Inc., Logan, UT, cat. SH30070.03HI), 389 ng/mL hydrocortisone (Sigma-Aldrich, cat. H4001), 9.7 ng/mL human EGF recombinant protein (Invitrogen, cat. PHG0313), 23.4 microg/mL adenine (Sigma-Aldrich, cat. A2786), 97.3 U/mL penicillin-streptomycin (Invitrogen, cat. 15140122), 1.9 mM L-glutamine (Invitrogen, cat. 25030081), and 9.7 microM Y-27632 dihydrochloride (Tocris Bioscience, Bristol, United Kingdom, cat. 1254). The PDCs were cultured in complete DMEM/F12 media without 9.7 microM Y-27632 dihydrochloride for at least two passages prior to the screen. The established cell line HOP-62 was cultured in RPMI 1640 medium, HEPES (Invitrogen, cat. 22400105) with 10% defined fetal bovine serum (HyClone Laboratories Inc., cat. SH30070.03) and 2 mM L-glutamine (Invitrogen, cat. 25030081). The pooled donor HUVEC were cultured in endothelial cell growth medium 2 (PromoCell, Heidelberg, Germany, cat. C-22011) and the hMSC were cultured in mesenchymal stem cell growth medium 2 (PromoCell, cat. C-28009). For all experiments, HUVEC and hMSC were used at passages </=5, while the malignant cell lines were used at passages </=15. […]
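Also: spheroids exposed to agents for seven days before reading.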
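For viability, T/C in this document: 100% = DMSO vehicle wells so lower means fewer viable cells.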

CC(=O)Nc1cccc(-n2c(=O)n(C3CC3)c(=O)c3c(Nc4ccc(I)cc4F)n(C)c(=O)c(C)c32)c1 + C=CC(=O)N1CCN(c2nc(=O)n(-c3c(C)ccnc3C(C)C)c3nc(-c4c(O)cccc4F)c(F)cc23)C(C)C1
IC50 (second compound 0.1 µM): 6.05 nM | IC50 (second compound 0.316 µM): 3.57 nM | IC50 (second compound 1 µM): 4.92 nM | IC50 (second compound 3.16 µM): 2.38 nM | IC50 (second compound 10 µM): < 0.1 nM | viability, T/C (second compound 0.1 µM, first compound 0.0001 µM): 70.5% | viability, T/C (second compound 0.1 µM, first compound 0.000316 µM): 60.1% | viability, T/C (second compound 0.1 µM, first compound 0.001 µM): 61.5% | viability, T/C (second compound 0.1 µM, first compound 0.00316 µM): 57.9% | viability, T/C (second compound 0.1 µM, first compound 0.01 µM): 45.2% | viability, T/C (second compound 0.1 µM, first compound 0.0316 µM): 16.2% | viability, T/C (second compound 0.316 µM, first compound 0.0001 µM): 65.7% | viability, T/C (second compound 0.316 µM, first compound 0.000316 µM): 67.2% | viability, T/C (second compound 0.316 µM, first compound 0.001 µM): 57.6% | viability, T/C (second compound 0.316 µM, first compound 0.00316 µM): 51.5% | viability, T/C (second compound 0.316 µM, first compound 0.01 µM): 37.7% | viability, T/C (second compound 0.316 µM, first compound 0.0316 µM): 14.5% | viability, T/C (second compound 1 µM, first compound 0.0001 µM): 60% | viability, T/C (second compound 1 µM, first compound 0.000316 µM): 63% | viability, T/C (second compound 1 µM, first compound 0.001 µM): 56.3% | viability, T/C (second compound 1 µM, first compound 0.00316 µM): 53.1% | viability, T/C (second compound 1 µM, first compound 0.01 µM): 44.4% | viability, T/C (second compound 1 µM, first compound 0.0316 µM): 13.3% | viability, T/C (second compound 3.16 µM, first compound 0.0001 µM): 60.7% | viability, T/C (second compound 3.16 µM, first compound 0.000316 µM): 57.2% | viability, T/C (second compound 3.16 µM, first compound 0.001 µM): 54.5% | viability, T/C (second compound 3.16 µM, first compound 0.00316 µM): 49.4% | viability, T/C (second compound 3.16 µM, first compound 0.01 µM): 31.9% | viability, T/C (second compound 3.16 µM, first compound 0.0316 µM): 15.3% | viability, T/C (second compound 10 µM, first compound 0.0001 µM): 46.5% | viability, T/C (second compound 10 µM, first compound 0.000316 µM): 47.7% | viability, T/C (second compound 10 µM, first compound 0.001 µM): 45.1% | viability, T/C (second compound 10 µM, first compound 0.00316 µM): 41.2% | viability, T/C (second compound 10 µM, first compound 0.01 µM): 24.1% | viability, T/C (second compound 10 µM, first compound 0.0316 µM): 13.4%
